Measured values as given in US20100119483A1, “PEPTIDE VIRAL ENTRY INHIBITORS” (Schering Corporation, priority 2004, published 2010).
Values joined by “and” are separate entries in the source; they are usually repeats but may differ in a detail not shown here. Equal entries are not always repeated.

Legend:
HCV pseudoparticles = test: HCV pseudoparticle entry assay, anti-CD81 antibody and peptide titrated in a 96-well matrix; type: cell-based, hepatitis C virus; details: HCV entry inhibition, combination
Procedure: The anti-CD81 antibody and the peptide were titrated in duplicates in a 96-well formatted matrix and tested in an HCV pseudoparticle entry assay. The assays were carried out essentially as described above.
Dose response curves of anti-CD81 antibody with various amounts of peptide were plotted vs. RLU, and the results are summarized below. […] When the peptide was present at 10-30% of its IC50 concentration, the IC50 for anti-CD81 was reduced by 3 to 6-fold. Similarly, when the peptide was present at 1% to 25% of its IC75 concentration, the IC75 for the anti-CD81 antibody was reduced by 3 to 9 fold. Thus, the peptide enhances the potency of the anti-CD81 antibody.

HCVpp = test: Wash off study, HCVpp entry under conditions A-D at 37° C. or 4° C.; type: cell-based, hepatitis C virus; details: for luciferase units: 37° C.; for luciferase units observed in the entry assay: 4° C., listed as V-2b
Procedure: To identify if the peptides of the invention bind to the cells and therefore inhibit entry, anti-CD81 antibody or peptide (SEQ ID NO: 77) was tested at four conditions: • (A) peptide or anti-CD81 antibody was pre-incubated with cells and virus separately, cells were washed and virus together with peptide was added; • (B) peptide or anti-CD81 antibody was pre-incubated with virus only first and then virus together with peptide was added to the cells; • (C) peptide or anti-CD81 antibody was preincubated with cells only and washed off, and then virus was added; and • (D) same as C except that virus was washed off after 1 hour of incubation.
The majority of difference seen before the 4-hour time-point is in line with the model wherein most of the entry events occur during the first four hours (data not shown). As expected, the RLU signal was reduced at earlier time points and lead to higher variation of the assay. […] In anticipating similar phenomena might exist with the peptide, we applied the one hour virus incubation in the following studies. In tables 19-22, condition D was identical to condition C except that virus was removed after 1 hour of incubation. […] Anti-CD81 antibody binds to CD81 expressed on the cells and therefore blocks HCVpp entry.
The data in tables 19 and 20 were generated in assays conducted at 37° C. The date generated in tables 21 and 22 were generated in assays conducted at 4° C. The numbers in each table (19-22) represent the luciferase units observed in the entry assay under each indicated condition.

HIVpp = test: HIV pseudotyped virus (HIVpp) entry counter-screen; type: cell-based; details: 1st and 2nd trial
Procedure: Infection of hepatoma cell lines with HCV pseudotype particles and screen for inhibitory peptides. The hepatoma cells, Huh7, was seeded at 8000 cells in 90 ul medium in 96-well plate. In the case of the inhibitor screen, the inhibitor was incubated with cells for one hour at 37° C. and then 50 ul viral supernatant was added to the cells 24 hours after seeding. The viral stock was pre-tittered and diluted to yield approximately 10,000 to 20,000 RLU. The cells were incubated at 37° C. with 5% CO2 for additional 72 hours and were harvested for luciferase assay. Peptide stocks were prepared in 100% DMSO at 10 mg/ml and were first screened at 100 ug/ml and then a dose responsive curve was generated with 10 points 3-fold titration starting from 100 ug/ml.
The specificity of the peptides were counter-screened with AMLV and HIV pseudotyped viruses using the same infection protocol.
The data points for the dose response curve of peptide […] (SEQ ID NO: 77) are shown below in tables 5A (HCVpp) and 5B (HIVpp). The peptide of SEQ ID NO: 77 was first serial diluted by the factor of 3 in 100% DMSO from 100 ug/ml and then transferred to the assay plates at 100-fold dilution. The peptide was first incubated with cells and HCVpp (A) or HIVpp (B), respectively, for 30 minutes at […] in this experiment. Then, the medium containing the peptide was removed from the cells and virus with peptide was added to the cells. Cells were incubated for 72 hours and then were harvested for luciferase assay. Two separate trials were performed.

[1] = peptide 0.0457 ug/ml, condition A
[2] = peptide 0.0457 ug/ml, condition B
[3] = peptide 0.0457 ug/ml, condition C
[4] = peptide 0.1372 ug/ml, condition A
[5] = peptide 0.1372 ug/ml, condition B
[6] = peptide 0.1372 ug/ml, condition C
[7] = peptide 0.4115 ug/ml, condition A
[8] = peptide 0.4115 ug/ml, condition B
[9] = peptide 0.4115 ug/ml, condition C
[10] = peptide 1.2346 ug/ml, condition A
[11] = peptide 1.2346 ug/ml, condition B
[12] = peptide 1.2346 ug/ml, condition C
[13] = peptide 3.7037 ug/ml, condition A
[14] = peptide 3.7037 ug/ml, condition B
[15] = peptide 3.7037 ug/ml, condition C
[16] = peptide 11.1111 ug/ml, condition A
[17] = peptide 11.1111 ug/ml, condition C
[18] = peptide 33.3333 ug/ml, condition A
[19] = peptide 33.3333 ug/ml, condition B
[20] = peptide 33.3333 ug/ml, condition C

V-S-F-A-I-K-W-E-Y-V-L-L-L-F-L-L [SEQ ID NO: 77]
effect of the peptide on potency of anti-CD81 antibody (HCV pseudoparticles): enhance the potency of an anti-CD81 antibody | luciferase units (HCVpp; peptide 0.0046 ug/ml (two lines), condition A): 74772 luciferase units and 76125 luciferase units and 57485 luciferase units and 58523 luciferase units | luciferase units (HCVpp; peptide 0.0046 ug/ml (two lines), condition B): 65028 luciferase units and 60343 luciferase units and 57349 luciferase units and 51858 luciferase units | luciferase units (HCVpp; peptide 0.0046 ug/ml (two lines), condition C): 40529 luciferase units and 45271 luciferase units and 37116 luciferase units and 32831 luciferase units | luciferase units (HCVpp; [1]): 50460 luciferase units and 53231 luciferase units | luciferase units (HCVpp; [2]): 47929 luciferase units and 53377 luciferase units | luciferase units (HCVpp; [3]): 36956 luciferase units and 46680 luciferase units | luciferase units (HCVpp; peptide 0.0457 ug/ml, condition D): 3531 luciferase units and 2785 luciferase units | luciferase units (HCVpp; [4]): 44159 luciferase units and 41959 luciferase units | luciferase units (HCVpp; [5]): 43468 luciferase units and 36136 luciferase units | luciferase units (HCVpp; [6]): 34241 luciferase units and 44163 luciferase units | luciferase units (HCVpp; peptide 0.1372 ug/ml, condition D): 2443 luciferase units and 4834 luciferase units | luciferase units (HCVpp; [7]): 28106 luciferase units and 25559 luciferase units | luciferase units (HCVpp; [8]): 26979 luciferase units and 31819 luciferase units | luciferase units (HCVpp; [9]): 40225 luciferase units and 43467 luciferase units | luciferase units (HCVpp; peptide 0.4115 ug/ml, condition D): 3257 luciferase units and 2555 luciferase units | luciferase units (HCVpp; [10]): 21301 luciferase units and 21733 luciferase units | luciferase units (HCVpp; [11]): 25204 luciferase units and 14452 luciferase units | luciferase units (HCVpp; [12]): 36450 luciferase units and 40467 luciferase units | luciferase units (HCVpp; [13]): 15025 luciferase units and 10613 luciferase units | luciferase units (HCVpp; [14]): 15213 luciferase units and 12233 luciferase units | luciferase units (HCVpp; [15]): 31857 luciferase units and 32265 luciferase units | luciferase units (HCVpp; peptide 3.7037 ug/ml, condition D): 2974 luciferase units and 3707 luciferase units | luciferase units (HCVpp; [16]): 12402 luciferase units and 6768 luciferase units | luciferase units (HCVpp; peptide 11.1111 ug/ml, condition B): 10212 luciferase units and 6902 luciferase units | luciferase units (HCVpp; [17]): 28818 luciferase units and 33022 luciferase units | luciferase units (HCVpp; peptide 11.1111 ug/ml, condition D): 3302 luciferase units and 3259 luciferase units | luciferase units (HCVpp; [18]): 6467 luciferase units and 6356 luciferase units | luciferase units (HCVpp; [19]): 7146 luciferase units and 4501 luciferase units | luciferase units (HCVpp; [20]): 23383 luciferase units and 19309 luciferase units | luciferase units (HCVpp; peptide 33.3333 ug/ml, condition D): 2351 luciferase units and 2058 luciferase units | luciferase units (HCVpp; peptide 100.0000 ug/ml, condition A (pre-incubated with cells and virus separately, cells washed)): 9216 luciferase units and 7419 luciferase units | luciferase units (HCVpp; peptide 100.0000 ug/ml, condition B (pre-incubated with virus only)): 8074 luciferase units and 4093 luciferase units | luciferase units (HCVpp; peptide 100.0000 ug/ml, condition C (pre-incubated with cells only, washed off)): 19088 luciferase units and 14073 luciferase units | luciferase units (HCVpp; peptide 100.0000 ug/ml, condition D (as C, virus washed off after 1 hour)): 780 luciferase units and 1531 luciferase units | luciferase units observed in the entry assay (HCVpp; peptide 0.0046 ug/ml, condition A): 22435 luciferase units and 18765 luciferase units and 17613 luciferase units and 22306 luciferase units | luciferase units observed in the entry assay (HCVpp; peptide 0.0046 ug/ml, condition B): 26860 luciferase units and 23215 luciferase units and 23633 luciferase units and 21213 luciferase units | luciferase units observed in the entry assay (HCVpp; peptide 0.0046 ug/ml, condition C): 13903 luciferase units and 13795 luciferase units and 14095 luciferase units and 10535 luciferase units | luciferase units observed in the entry assay (HCVpp; [1]): 7498 luciferase units and 7299 luciferase units | luciferase units observed in the entry assay (HCVpp; [2]): 6703 luciferase units and 9954 luciferase units | luciferase units observed in the entry assay (HCVpp; [3]): 16101 luciferase units and 13757 luciferase units | luciferase units observed in the entry assay (HCVpp; [4]): 5745 luciferase units and 7826 luciferase units | luciferase units observed in the entry assay (HCVpp; [5]): 7670 luciferase units and 6880 luciferase units | luciferase units observed in the entry assay (HCVpp; [6]): 9444 luciferase units and 10124 luciferase units | luciferase units observed in the entry assay (HCVpp; [7]): 5517 luciferase units and 5574 luciferase units | luciferase units observed in the entry assay (HCVpp; [8]): 4724 luciferase units and 3648 luciferase units | luciferase units observed in the entry assay (HCVpp; [9]): 9027 luciferase units and 11381 luciferase units | luciferase units observed in the entry assay (HCVpp; [10]): 3584 luciferase units and 5974 luciferase units | luciferase units observed in the entry assay (HCVpp; [11]): 5542 luciferase units and 4382 luciferase units | luciferase units observed in the entry assay (HCVpp; [12]): 6131 luciferase units and 6853 luciferase units | luciferase units observed in the entry assay (HCVpp; [13]): 2824 luciferase units and 3255 luciferase units | luciferase units observed in the entry assay (HCVpp; [14]): 3059 luciferase units and 3424 luciferase units | luciferase units observed in the entry assay (HCVpp; [15]): 9414 luciferase units and 8570 luciferase units | luciferase units observed in the entry assay (HCVpp; [16]): 2833 luciferase units and 2954 luciferase units | luciferase units observed in the entry assay (HCVpp; [17]): 7352 luciferase units and 4725 luciferase units | luciferase units observed in the entry assay (HCVpp; [18]): 1677 luciferase units and 2383 luciferase units | luciferase units observed in the entry assay (HCVpp; [19]): 2900 luciferase units and 1914 luciferase units | luciferase units observed in the entry assay (HCVpp; [20]): 8294 luciferase units and 8104 luciferase units | luciferase units observed in the entry assay (HCVpp; peptide 100 ug/ml, condition A): 1924 luciferase units and 1845 luciferase units | luciferase units observed in the entry assay (HCVpp; peptide 100 ug/ml, condition C): 5118 luciferase units and 8821 luciferase units | inhibition compared to anti-CD81 antibody in the wash-off experiment (HCVpp; pre-incubated with cells at 37° C. and 4° C.): more inhibition | inhibition at condition C (HCVpp; pre-incubated with cells only and washed off, then virus added): little inhibition | RLU units (HIVpp; peptide conc. 0.091515 log ug/ml): 674698 RLU and 651004 RLU | RLU units (HIVpp; peptide conc. 0.568636 log ug/ml): 561454 RLU and 612198 RLU | RLU units (HIVpp; peptide conc. 1.045758 log ug/ml): 740592 RLU and 744482 RLU | RLU units (HIVpp; peptide conc. 1.522879 log ug/ml): 787025 RLU and 683636 RLU | RLU units (HIVpp; peptide conc. 2 log ug/ml): 435408 RLU and 543239 RLU | RLU units (HIVpp; peptide conc. −0.38561 log ug/ml): 732652 RLU and 734586 RLU | RLU units (HIVpp; peptide conc. −0.86273 log ug/ml): 676303 RLU and 639921 RLU | RLU units (HIVpp; peptide conc. −1.33985 log ug/ml): 815312 RLU and 754404 RLU
